In ChEMBL document CHEMBL1629662, “Antimicrobial activity of prulifloxacin tested against a worldwide collection of gastroenteritis-producing pathogens, including those causing traveler's diarrhea” (2009):
≈ marks a conversion by molar mass, not a printed value.

What was measured:
Escherichia coli [1] = experiment: Antibacterial activity against Escherichia coli by broth microdilution method; type: functional
Escherichia coli [2] = experiment: Antibacterial activity against Escherichia coli assessed as percent susceptible isolates by broth microdilution method; type: functional
Escherichia coli [3] = experiment: Antibacterial activity against Escherichia coli assessed as percent resistant isolates by broth microdilution method; type: functional
Salmonella typhimurium [4] = experiment: Antibacterial activity against Salmonella enterica serovar Typhimurium by broth microdilution method; type: functional, Salmonella enterica subsp. enterica serovar Typhimurium
Salmonella typhimurium [5] = experiment: Antibacterial activity against Salmonella enterica serovar Typhimurium assessed as percent resistant isolates by broth microdilution method; type: functional, Salmonella enterica subsp. enterica serovar Typhimurium; settings: pooled result: one value given for 8 cell lines, strains, targets or settings
Salmonella enteritidis [6] = experiment: Antibacterial activity against Salmonella enterica serovar Enteritidis by broth microdilution method; type: functional, Salmonella enterica subsp. enterica serovar Enteritidis
Salmonella enteritidis [7] = experiment: Antibacterial activity against Salmonella enterica serovar Enteritidis assessed as percent susceptible isolates by broth microdilution method; type: functional, Salmonella enterica subsp. enterica serovar Enteritidis; settings: pooled result: one value given for 5 cell lines, strains, targets or settings
Salmonella typhi = experiment: Antibacterial activity against Salmonella enterica serovar Typhi assessed as percent susceptible isolates by broth microdilution method; type: functional, Salmonella enterica subsp. enterica serovar Typhi
Salmonella paratyphi [8] = experiment: Antibacterial activity against Salmonella enterica serovar Paratyphi by broth microdilution method; type: functional, Salmonella enterica subsp. enterica serovar Paratyphi A
Salmonella paratyphi [9] = experiment: Antibacterial activity against Salmonella enterica serovar Paratyphi assessed as percent susceptible isolates by broth microdilution method; type: functional, Salmonella enterica subsp. enterica serovar Paratyphi A
Shigella sonnei [10] = experiment: Antibacterial activity against Shigella sonnei by broth microdilution method; type: functional
Shigella sonnei [11] = experiment: Antibacterial activity against Shigella sonnei assessed as percent resistant isolates by broth microdilution method; type: functional; settings: pooled result: one value given for 4 cell lines, strains, targets or settings
Shigella flexneri = experiment: Antibacterial activity against Shigella flexneri by broth microdilution method; type: functional
Shigella boydii [12] = experiment: Antibacterial activity against Shigella boydii by broth microdilution method; type: functional
Shigella boydii [13] = experiment: Antibacterial activity against Shigella boydii assessed as percent susceptible isolates by broth microdilution method; type: functional; settings: pooled result: one value given for 3 cell lines, strains, targets or settings
Shigella dysenteriae [14] = experiment: Antibacterial activity against Shigella dysenteriae by broth microdilution method; type: functional
Shigella dysenteriae [15] = experiment: Antibacterial activity against Shigella dysenteriae assessed as percent susceptible isolates by broth microdilution method; type: functional
Yersinia enterocolitica [16] = experiment: Antibacterial activity against Yersinia enterocolitica by broth microdilution method; type: functional
Yersinia enterocolitica [17] = experiment: Antibacterial activity against Yersinia enterocolitica assessed as percent susceptible isolates by broth microdilution method; type: functional
Yersinia enterocolitica [18] = experiment: Antibacterial activity against Yersinia enterocolitica assessed as percent resistant isolates by broth microdilution method; type: functional
[19] = system: Yersinia pseudotuberculosis; experiment: Antibacterial activity against Yersinia pseudotuberculosis by broth microdilution method; type: functional
[20] = system: Yersinia pseudotuberculosis; experiment: Antibacterial activity against Yersinia pseudotuberculosis assessed as percent susceptible isolates by broth microdilution method; type: functional
Aeromonas hydrophila [21] = experiment: Antibacterial activity against Aeromonas hydrophila by broth microdilution method; type: functional
Aeromonas hydrophila [22] = experiment: Antibacterial activity against Aeromonas hydrophila assessed as percent susceptible isolates by broth microdilution method; type: functional
Aeromonas hydrophila [23] = experiment: Antibacterial activity against Aeromonas hydrophila assessed as percent resistant isolates by broth microdilution method; type: functional
Aeromonas caviae [24] = experiment: Antibacterial activity against Aeromonas caviae by broth microdilution method; type: functional
Aeromonas caviae [25] = experiment: Antibacterial activity against Aeromonas caviae assessed as percent susceptible isolates by broth microdilution method; type: functional
Aeromonas caviae [26] = experiment: Antibacterial activity against Aeromonas caviae assessed as percent resistant isolates by broth microdilution method; type: functional
Aeromonas sobria [27] = experiment: Antibacterial activity against Aeromonas sobria by broth microdilution method; type: functional
Aeromonas sobria [28] = experiment: Antibacterial activity against Aeromonas sobria assessed as percent susceptible isolates by broth microdilution method; type: functional
Aeromonas sobria [29] = experiment: Antibacterial activity against Aeromonas sobria assessed as percent resistant isolates by broth microdilution method; type: functional
Aeromonas veronii [30] = experiment: Antibacterial activity against Aeromonas veronii by broth microdilution method; type: functional
Aeromonas veronii [31] = experiment: Antibacterial activity against Aeromonas veronii assessed as percent susceptible isolates by broth microdilution method; type: functional
Aeromonas veronii [32] = experiment: Antibacterial activity against Aeromonas veronii assessed as percent resistant isolates by broth microdilution method; type: functional
Plesiomonas shigelloides [33] = experiment: Antibacterial activity against Plesiomonas shigelloides by broth microdilution method; type: functional
Plesiomonas shigelloides [34] = experiment: Antibacterial activity against Plesiomonas shigelloides assessed as percent susceptible isolates by broth microdilution method; type: functional
Plesiomonas shigelloides [35] = experiment: Antibacterial activity against Plesiomonas shigelloides assessed as percent resistant isolates by broth microdilution method; type: functional
Vibrio cholerae = experiment: Antibacterial activity against Vibrio cholerae by broth microdilution method; type: functional
Vibrio parahaemolyticus = experiment: Antibacterial activity against Vibrio parahaemolyticus by broth microdilution method; type: functional
Vibrio alginolyticus = experiment: Antibacterial activity against Vibrio alginolyticus by broth microdilution method; type: functional
Vibrio fluvialis = experiment: Antibacterial activity against Vibrio fluvialis by broth microdilution method; type: functional
Vibrio vulnificus = experiment: Antibacterial activity against Vibrio vulnificus by broth microdilution method; type: functional
Vibrio sp. = experiment: Antibacterial activity against Vibrio sp. by broth microdilution method; type: functional
Campylobacter jejuni [36] = experiment: Antibacterial activity against Campylobacter jejuni by broth microdilution method; type: functional
Campylobacter jejuni [37] = experiment: Antibacterial activity against Campylobacter jejuni assessed as percent susceptible isolates by broth microdilution method; type: functional; settings: pooled result: one value given for 2 cell lines, strains, targets or settings
Campylobacter jejuni [38] = experiment: Antibacterial activity against Campylobacter jejuni assessed as percent resistant isolates by broth microdilution method; type: functional; settings: pooled result: one value given for 2 cell lines, strains, targets or settings
Campylobacter coli = experiment: Antibacterial activity against Campylobacter coli by broth microdilution method; type: functional

O=C(O)c1cn(C2CC2)c2cc(N3CCNCC3)c(F)cc2c1=O [CIPROFLOXACIN]
MIC50 (Escherichia coli [1]): 0.008 µg/mL (≈ 0.0241 µM) | MIC90 (Escherichia coli [1]): 0.016 µg/mL (≈ 0.0483 µM) | Activity (Escherichia coli [2]): 97% | Activity (Escherichia coli [3]): 3% | MIC50 (Salmonella typhimurium [4]): 0.008 µg/mL (≈ 0.0241 µM) | MIC90 (Salmonella typhimurium [4]): 0.12 µg/mL (≈ 0.362 µM) | Activity (Salmonella typhimurium [5]): 0% | MIC50 (Salmonella enteritidis [6]): 0.008 µg/mL (≈ 0.0241 µM) | MIC90 (Salmonella enteritidis [6]): 0.12 µg/mL (≈ 0.362 µM) | Activity (Salmonella enteritidis [7]): 100% | Activity (Salmonella typhi): 100% | MIC (Salmonella paratyphi [8]): 0.004 µg/mL (≈ 0.0121 µM) | Activity (Salmonella paratyphi [9]): 100% | MIC50 (Shigella sonnei [10]): 0.008 µg/mL (≈ 0.0241 µM) | MIC90 (Shigella sonnei [10]): 0.016 µg/mL (≈ 0.0483 µM) | Activity (Shigella sonnei [11]): 0% | MIC50 (Shigella flexneri): 0.008 µg/mL (≈ 0.0241 µM) | MIC90 (Shigella flexneri): 0.016 µg/mL (≈ 0.0483 µM) | MIC50 (Shigella boydii [12]): 0.008 µg/mL (≈ 0.0241 µM) | MIC90 (Shigella boydii [12]): 0.016 µg/mL (≈ 0.0483 µM) | Activity (Shigella boydii [13]): 100% | MIC50 (Shigella dysenteriae [14]): 0.008 µg/mL (≈ 0.0241 µM) | MIC90 (Shigella dysenteriae [14]): 0.016 µg/mL (≈ 0.0483 µM) | Activity (Shigella dysenteriae [15]): 100% | MIC50 (Yersinia enterocolitica [16]): 0.016 µg/mL (≈ 0.0483 µM) | MIC90 (Yersinia enterocolitica [16]): 0.03 µg/mL (≈ 0.0905 µM) | Activity (Yersinia enterocolitica [17]): 100% | Activity (Yersinia enterocolitica [18]): 0% | MIC50 [19]: 0.016 µg/mL (≈ 0.0483 µM) | MIC90 [19]: 0.03 µg/mL (≈ 0.0905 µM) | Activity [20]: 100% | MIC50 (Aeromonas hydrophila [21]): 0.004 µg/mL (≈ 0.0121 µM) | MIC90 (Aeromonas hydrophila [21]): 0.06 µg/mL (≈ 0.181 µM) | Activity (Aeromonas hydrophila [22]): 98% | Activity (Aeromonas hydrophila [23]): 2% | MIC50 (Aeromonas caviae [24]): 0.004 µg/mL (≈ 0.0121 µM) | MIC90 (Aeromonas caviae [24]): 0.06 µg/mL (≈ 0.181 µM) | Activity (Aeromonas caviae [25]): 98% | Activity (Aeromonas caviae [26]): 2% | MIC50 (Aeromonas sobria [27]): 0.004 µg/mL (≈ 0.0121 µM) | MIC90 (Aeromonas sobria [27]): 0.06 µg/mL (≈ 0.181 µM) | Activity (Aeromonas sobria [28]): 98% | Activity (Aeromonas sobria [29]): 2% | MIC50 (Aeromonas veronii [30]): 0.004 µg/mL (≈ 0.0121 µM) | MIC90 (Aeromonas veronii [30]): 0.06 µg/mL (≈ 0.181 µM) | Activity (Aeromonas veronii [31]): 98% | Activity (Aeromonas veronii [32]): 2% | MIC50 (Plesiomonas shigelloides [33]): 0.004 µg/mL (≈ 0.0121 µM) | Activity (Plesiomonas shigelloides [34]): 100% | Activity (Plesiomonas shigelloides [35]): 0% | MIC50 (Vibrio cholerae): 0.016 µg/mL (≈ 0.0483 µM) | MIC90 (Vibrio cholerae): 0.06 µg/mL (≈ 0.181 µM) | MIC50 (Vibrio parahaemolyticus): 0.016 µg/mL (≈ 0.0483 µM) | MIC90 (Vibrio parahaemolyticus): 0.06 µg/mL (≈ 0.181 µM) | MIC50 (Vibrio alginolyticus): 0.016 µg/mL (≈ 0.0483 µM) | MIC90 (Vibrio alginolyticus): 0.06 µg/mL (≈ 0.181 µM) | MIC50 (Vibrio fluvialis): 0.016 µg/mL (≈ 0.0483 µM) | MIC90 (Vibrio fluvialis): 0.06 µg/mL (≈ 0.181 µM) | MIC50 (Vibrio vulnificus): 0.016 µg/mL (≈ 0.0483 µM) | MIC90 (Vibrio vulnificus): 0.06 µg/mL (≈ 0.181 µM) | MIC50 (Vibrio sp.): 0.016 µg/mL (≈ 0.0483 µM) | MIC90 (Vibrio sp.): 0.06 µg/mL (≈ 0.181 µM) | MIC50 (Campylobacter jejuni [36]): 0.06 µg/mL (≈ 0.181 µM) | MIC90 (Campylobacter jejuni [36]): > 2 µg/mL | Activity (Campylobacter jejuni [37]): 82.6% | Activity (Campylobacter jejuni [38]): 16.5% | MIC50 (Campylobacter coli): 0.06 µg/mL (≈ 0.181 µM) | MIC90 (Campylobacter coli): > 2 µg/mL
